Measured values reported in ChEMBL document CHEMBL5303304, “EUbOPEN Chemogenomics Library - IncuCyte” (2023).

What was measured:
Assay type in all cases: toxicity, cell-based
U2OS = assay: Incucyte cell viability with U2OS; conditions: human, 10 µM, compound concentration 10 uM
Fibroblast = assay: Incucyte cell viability with human fibroblast; conditions: 10 µM, compound concentration 10 uM
HEK-293T = assay: Incucyte cell viability with HEK293T; conditions: human, 10 µM, compound concentration 10 uM
Note: unitless GR value; below 1 slowed growth and below 0 cell loss.

| Compound | Growth Rate (U2OS; 0 h, replicate number 1) | Growth Rate (U2OS; 12 h, replicate number 2) | Growth Rate (Fibroblast; 0 h, replicate number 2) | Growth Rate (Fibroblast; 6 h, replicate number 1) | Growth Rate (Fibroblast; 12 h, replicate number 1) | Growth Rate (Fibroblast; 24 h, replicate number 1) | Growth Rate (HEK-293T; 0 h, replicate number 1) | Growth Rate (HEK-293T; 0 h, replicate number 2) | Growth Rate (HEK-293T; 6 h, replicate number 1) | Growth Rate (HEK-293T; 6 h, replicate number 2) | Growth Rate (HEK-293T; 12 h, replicate number 2) | Growth Rate (HEK-293T; 18 h, replicate number 2) | Growth Rate (HEK-293T; 24 h, replicate number 2) | Growth Rate (U2OS; 12 h, replicate number 1) | Growth Rate (U2OS; 18 h, replicate number 1) | Growth Rate (U2OS; 18 h, replicate number 2) | Growth Rate (U2OS; 24 h, replicate number 1) | Growth Rate (U2OS; 24 h, replicate number 2) | Growth Rate (Fibroblast; 18 h, replicate number 2) | Growth Rate (Fibroblast; 24 h, replicate number 2) | further results |
| --- | --- | --- | --- | --- | --- | --- | --- | --- | --- | --- | --- | --- | --- | --- | --- | --- | --- | --- | --- | --- | --- |
| C[C@H](c1ccnc(Nc2nc3ccc(-c4cc(N(C)C)ncn4)cc3[nH]2)c1)N1CCN(C(=O)CC(F)(F)F)CC1 [BAY-985] | -0.23 | 0.94 | -1 | 0.99 | -1 | 0.04 | 0.79 | 0.27 | 0.4 | 0.84 | 0.95 | 0.94 | 0.92 | – | – | – | – | – | – | – | Growth Rate (Fibroblast; 6 h, replicate number 2): -0.72 |
| CCc1ccccc1C(=O)Nc1n[nH]c2c(C)c(F)c(C3C(C#N)=C(C)N(C)C(C)=C3C#N)cc12 [BAY-3827] | – | 0.66 | -0.1 | – | – | – | 0.25 | -0.99 | – | 0.11 | 0.34 | 0.66 | 0.71 | 0.96 | 0.9 | 0.62 | 0.9 | 0.57 | – | – | Growth Rate (U2OS; 6 h, replicate number 2): 0.51; Growth Rate (Fibroblast; 0 h, replicate number 1): 0.47; Growth Rate (HEK-293T; 18 h, replicate number 1): 0.99 |
| Cc1c(N2CCCC2)nc2ccc(Br)cc2c1C(=O)NC[C@H](CCC(=O)O)c1ccccc1Cl [BAY-6672] | 0.89 | 0.83 | – | 0.13 | 0.91 | – | -0.43 | – | – | – | 0.76 | 0.38 | 0.44 | 0.88 | 0.67 | 0.9 | 0.98 | 0.79 | 0.93 | 0.89 | Growth Rate (U2OS; 0 h, replicate number 2): 0.47; Growth Rate (U2OS; 6 h, replicate number 1): 0.7; Growth Rate (U2OS; 6 h, replicate number 2): 0.83; Growth Rate (Fibroblast; 18 h, replicate number 1): 0.97 |
| COc1cc(N[C@@H]2CCCC[C@]2(O)C(F)(F)F)ccc1F [BAY-9897] | -0.16 | – | – | – | 0.82 | – | 0.51 | 0.5 | – | 0.88 | 0.88 | – | – | 0.68 | 0.78 | 0.96 | 0.88 | 0.77 | – | – | Growth Rate (U2OS; 6 h, replicate number 1): 0.53 |
| Cl.N/C(=N\C(=O)c1nc(Cl)c(N)nc1N)NCc1ccccc1 [BENZAMIL HYDROCHLORIDE] | 0.13 | 0.99 | – | -0.25 | – | – | – | – | 0.83 | 0.79 | 1 | – | – | – | 1 | – | – | 0.94 | 0.68 | 0.74 | Growth Rate (Fibroblast; 0 h, replicate number 1): 0.69; Growth Rate (Fibroblast; 6 h, replicate number 2): -0.19; Growth Rate (Fibroblast; 12 h, replicate number 2): 0.56 |
| Cc1nnc2n1-c1sc3c(c1C(c1ccccc1Cl)=NC2)CC(C(=O)N1CCOCC1)C3 (stereo not given) [BEPAFANT] | – | – | -0.12 | 0.34 | – | 0.87 | 0.58 | 0 | – | – | – | 0.99 | – | 0.9 | – | – | 0.89 | – | 0.79 | 0.92 | Growth Rate (U2OS; 6 h, replicate number 1): 0.52; Growth Rate (U2OS; 6 h, replicate number 2): 0.91; Growth Rate (Fibroblast; 12 h, replicate number 2): 0.71; Growth Rate (Fibroblast; 18 h, replicate number 1): 0.77 |
| CNCc1ccc(-c2cc(-c3nc(-c4ccc(S(=O)(=O)C(C)C)cc4)cnc3N)on2)cc1 [BERZOSERTIB] | -1 | 0.45 | – | – | – | -0.05 | – | -0.99 | -0.67 | -0.05 | -0.51 | -0.38 | -0.26 | -0.83 | 0.15 | 0.23 | 0.31 | 0.19 | -0.14 | -0.29 | Growth Rate (Fibroblast; 0 h, replicate number 1): -1; Growth Rate (Fibroblast; 12 h, replicate number 2): 0.24; Growth Rate (Fibroblast; 18 h, replicate number 1): 0.32; Growth Rate (HEK-293T; 12 h, replicate number 1): -0.49; Growth Rate (HEK-293T; 18 h, replicate number 1): -0.3; Growth Rate (HEK-293T; 24 h, replicate number 1): -0.24 |
